What all share (type): cell-based
The subject of assay [1] is synthetic promoter G5TO4 (tetracycline transcription silencer tTS). Particulars: 1 μg/ml tetracycline; culture medium two days post-transfection; HeLa-tTS.
Assay [2] has the same test system.
For assay [3] the test system is unchanged. Particulars: clone #32, 1 μg/ml tetracycline.

Each structure is given as a SMILES string.

Consider `CN(C)[C@@H]1C(O)=C(C(N)=O)C(=O)[C@@]2(O)C(O)=C3C(=O)c4c(O)cccc4[C@@](C)(O)[C@H]3C[C@@H]12` [tetracycline], for which the “relative light units (RLU) with tetracycline vs. absence of tetracycline” value in assay [1] was found to be 16 fold. In addition, in assay [2], the “reporter activation by the addition of tetracycline” value was “more than 14 fold”. Also, in assay [3], the “reporter gene activation when tetracycline was added to the culture medium” value is recorded as “more than 200 fold”. In addition, the “luciferase activity in medium of cells treated with tetracycline vs. not treated” value in assay [3] (96-well microplate, one day) was determined as 200 fold.
